Reference: US20240059729A1, “MULTIFUNCTIONAL CYCLIC DINUCLEOTIDE AND USE THEREOF” (TYLIGAND BIOSCIENCE (SHANGHAI) LIMITED, priority 2020, published 2024)
Where a name gives a salt, the structure may show the parent alone.

Test system: CT26 cells
Assay: Inhibition of proliferation of CT26 cells (CellTiter-Glo)
Type: cell-based, mouse
Settings: for IC50: 120 hours, CellTiter-Glo
Procedure: CT26 cell is a mouse colorectal cancer cell line. This assay used the CellTiter-Glo Luminescence Cell Vitality Assay kit from Promega to evaluate the inhibitory activity of the compounds on the proliferation of CT26 cells.
In thawing the CT26 cells (ATCC #CRL-2638), a cell freezing tube was quickly shaken in a water bath at 37° C. to thaw the cells within 1 min. The thawed cell suspension was taken and evenly mixed with DMEM medium (GE, Cat #SH30243.01) containing 10% FBS (GIBCO, Cat #10099-141), centrifuged for 5 min at 1000 rpm, and the supernatant was discarded. The cell pellet was resuspended in 5 mL of the complete medium (DMEM medium containing 10% FBS), placed into a cell culture flask with a bottom area of 25 cm^2, and incubated in a cell incubator at 37° C., 5% CO2 and 95% humidity. When the cell confluence reached 70%˜80%, the cells were passaged. All the cells in the culture flask were transferred to a 15 mL centrifuge tube, centrifuged for 5 min at 1000 rpm, and the supernatant was discarded. 5 mL of fresh complete medium was added to re-suspend the cell pellet, 1 mL of which was taken to place in a cell culture flask with a bottom area of 25 cm^2, supplemented with 4 mL of fresh complete medium for further incubation. When the cell confluence reached 70%-80% again, plating was conducted following the procedure of cell passage, retaining 1/5 cell suspension for further inculation and remaining 4/5 of the cell suspension in a 15 mL centrifuge tube.
The cell suspension was centrifuged to discard the old culture medium, washed once using DMEM medium (serum-free), and centrifuged to remove the supernatant. The cells were then re-suspended in DMEM medium (serum-free). Cell viability was then detected by Trypan blue exclusion test and to be used for plating when the cell viability was confirmed to be more than 95%. A cell suspension with a density of 1.1×10^4 viable cells/mL was prepared using DMEM medium (serum-free), and 90 μL of the cell suspension was added to a 96-well 96-well transparent flat-bottomed black-walled cell culture plate (Corning, Cat #3603) so that the cell density in the plate was 1000 viable cells/well. A control group containing no cells, no compound, and complete medium only (i.e., a culture medium control), and a control group containing no compound but cells (i.e., a cell control) were set. The cell plates were placed in a cell incubator overnight.
A 10 mM stock solution of the compounds in DMSO was first serially diluted at 3.16-fold with DMSO (Sigma, Cat #D2650) to the 9th concentration, and the 10th concentration was set as DMSO control (compound-free). Then, the DMSO solutions containing different concentrations of the compounds were diluted at 10-fold with PBS (Solarbio, Cat #P1020) so that the DMSO content in each compound solution of various concentrations was 10%. Finally, 10 μL of each of such solutions was added into corresponding cell culture plate to provide an initial compound concentration of 100 μM, with the dilution fold of adjacent concentrations being 3.16 and the DMSO content in the cell culture plate being 1%. The cell plate was placed in a cell incubator for further 120 hours.
After 120 hours, the CellTiter-Glo reagent (Promega, Cat #G7572) was thawed and the plates were equilibrated at room temperature for 30 min. 100 uL of CellTiter-Glo was added to each well of the plate, and the cells were lysed thoroughly by shaking on an orbital shaker for 5 min. The plates were placed at room temperature for 20 min to stabilize the luminescence signal, and the luminescence value of each well was scanned at full wavelength with a multifunctional microplate reader (Molecular Devices, Spectramax M3). […]

SMILES	Inhibitory potency on in vitro growth of CT26 tumor cells (in words)	IC50	IC50 (Mus musculus)
Nc1ncnc2c1ncn2[C@@H]1O[C@@H]2COP(=O)([S-])O[C@@H]3[C@H](O)[C@@H](COP([O-])(=S)O[C@H]2[C@H]1O)O[C@H]3n1cnc2c(N)ncnc21.[Na+].[Na+] (some centres unmarked) [ADU-S100, reference compound]	no significant tumor cell inhibitory potency	> 10 µM	–
Nc1nc2c(ncn2[C@@H]2O[C@@H]3CO[P@@](=O)(S)OC4C(F)[C@H](n5cnc6c(N)nc(Cl)nc65)O[C@@H]4CO[P@@](=O)(S)OC2C3O)c(=O)[nH]1 (stereo partly drawn) [Example 10, (2′,3′)-cyclo-(Rp,Rp)-[2′-O-phosphorothioate-diester-guanosine]-[3′-O-phosphorothioate-diester-2-chloro-2′-deoxy-2′-fluoro-beta-adenosine] diammonium salt]	particularly significant inhibitory potency	–	< 1 µM
Nc1nc2c(ncn2[C@@H]2O[C@@H]3CO[P@@](=O)(S)OC4C(F)[C@H](n5cnc6c(N)nc(Cl)nc65)O[C@@H]4CO[P@@](=O)(S)OC3C2O)c(=O)[nH]1 (some centres unmarked) [Example 17, diammonium salt]	–	–	1 to 10 µM
